The target of data set [1] is T1, cPLA2 (Homo sapiens, UniProt P47712).
T1 sequence (P47712 1-749): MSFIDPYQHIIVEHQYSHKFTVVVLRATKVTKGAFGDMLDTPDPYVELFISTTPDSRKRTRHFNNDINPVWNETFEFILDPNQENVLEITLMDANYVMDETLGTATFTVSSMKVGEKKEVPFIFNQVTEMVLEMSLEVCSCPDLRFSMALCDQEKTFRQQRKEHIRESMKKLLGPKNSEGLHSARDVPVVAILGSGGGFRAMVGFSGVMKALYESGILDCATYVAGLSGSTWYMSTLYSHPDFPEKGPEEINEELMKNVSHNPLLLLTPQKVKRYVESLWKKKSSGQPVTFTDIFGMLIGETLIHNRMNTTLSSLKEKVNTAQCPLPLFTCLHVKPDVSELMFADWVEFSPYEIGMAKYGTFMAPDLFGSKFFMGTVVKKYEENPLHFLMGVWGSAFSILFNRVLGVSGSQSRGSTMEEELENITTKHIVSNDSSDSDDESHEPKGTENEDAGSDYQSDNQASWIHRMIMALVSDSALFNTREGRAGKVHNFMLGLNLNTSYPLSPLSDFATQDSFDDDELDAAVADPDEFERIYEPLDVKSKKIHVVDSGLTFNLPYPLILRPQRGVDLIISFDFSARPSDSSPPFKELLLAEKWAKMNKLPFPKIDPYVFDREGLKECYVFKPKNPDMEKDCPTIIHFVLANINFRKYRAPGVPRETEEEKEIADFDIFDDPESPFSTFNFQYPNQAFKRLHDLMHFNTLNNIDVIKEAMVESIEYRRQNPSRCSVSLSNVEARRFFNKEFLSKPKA
The data set can be described thus: Coumarin assay (hydrolysis of 7-hydroxycoumarinyl 6-heptenoate). In kind it is biochemical. The settings on record: 60 μM 7-hydroxycoumarinyl 6-heptenoate, 4 μg cPLA2, pH 7.5.
Experimental: Inhibitors were mixed with 200 μL assay buffer (80 mM Hepes, pH 7.5, 1 mM EDTA) containing 60 μM 7-hydroxycoumarinyl 6-heptenoate. The reaction was initiated by adding 4 μg cPLA2 in 50 μL assay buffer. Hydrolysis of the 7-hydroxycounarimyl 6-heptenoate ester was monitored in a fluorometer by exciting at 360 nm and monitoring emission at 460 nm. Enzyme activity is proportional to the increase in emission at 460 nm per minute. In the presence of a cPLA2 inhibitor, the rate of increase is less.

The nature of data set [2]: Exposure after chow dosing in mice. To be noted: mouse, in vivo, oral; ApoE knockout mice, chow diet supplemented at 3.3 mg/g chow.
Data set [3] concerns platelet aggregation. The data set can be described thus: PFA-100 ex vivo platelet aggregation of chow dosed mice. The settings on record: ApoE knockout mice, 3.3 mg/g chow for 2 days; control 142±16, p<0.02. In kind it is in vivo.
Data set [4] deals with Human platelet aggregation. As to the kind of experiment: Platelet Function Analyzer (PFA-100) study, whole human blood in vitro. In kind it is cell-based. The settings on record: for prolongation of PFA-100 closure time: Collagen/Epinephrine cartridges, 10 minutes incubation, DMSO vehicle 125±13.9 seconds. As for the experimental part: Platelet Function Analyzer (PFA-100®) Study
Human platelet aggregation was also studied using the platelet function analyzer (PFA-100®). […] Tubes were inverted 5 times and the blood was transferred to 15 ml polypropylene conical tubes. […] The manufacturers protocol was followed for the PFA-100 using Collagen/Epinephrine cartridges (0.5% DMSO alone in whole blood gave closure times of 125±13.9 seconds). Maximum closure time is 300 seconds, as set by the manufacturer. […] The blood from two mice was pooled to obtain enough blood (800 μl minimum) to conduct each assay.

Consider “2-{2-[1-Benzhydryl-5-chloro-2-(2-phenylmethanesulfonyl-amino-ethyl)-1H-indol-3-yl]-ethoxy}-benzoic acid [Example 283]”, for which, in data set [1], the half-inhibitory concentration (IC50) (commonly the concentration needed to halve the response being measured) amounted to 500 nM.

As to “4-[2-(1-benzhydryl-5-chloro-2-{2-[({2-[(3R,5S)-3,5-dimethylmorpholin-4-yl]ethyl}sulfonyl)amino]ethyl}-1H-indol-3-yl)ethoxy]benzoic acid [Example 250]”, the half-maximal inhibitory concentration (IC50) in data set [1] was found to be 2100 nM.

In data set [1], “4-{2-[1-benzhydryl-5-chloro-2-(2-{[(2,6-dimethylbenzyl)sulfonyl]amino}ethyl)-1H-indol-3-yl]ethoxy}benzoic acid [Example 279]” yielded an IC50 of 160 nM.

For the molecule `O=C(O)c1ccc(CCCc2c(CCNS(=O)(=O)Cc3ccc(Cl)c(Cl)c3)n(C(c3ccccc3)c3ccccc3)c3ccc(Cl)cc23)cc1` [Example 44, 4-{3-[1-benzhydryl-5-chloro-2-(2-{[(3,4-dichlorobenzyl)sulfonyl]amino}ethyl)-1H-indol-3-yl]propyl}benzoic acid], the highest concentration (Cmax) (in general, the peak of the concentration-time curve) in data set [2] is roughly 500 ng/mL. The “closure time of the PFA-100, ex vivo” value in data set [3] was determined as 194 ± 49 s.

Turning to `Cc1cccc(C)c1CS(=O)(=O)NCCc1c(CCCc2ccc(C(=O)O)cc2)c2cc(Cl)ccc2n1C(c1ccccc1)c1ccccc1` [Example 52, 4-(3-[1-benzhydryl-5-chloro-2-(2-{[(2,6-dimethylbenzyl)-sulfonyl]amino}ethyl)-1H-indol-3-yl]propyl}benzoic acid], the “prolongation of PFA-100 closure time” value in data set [4] is given as “able to prolong the closure time to varying extents”. In data set [4] (compared: Examples 44, 52 and aspirin), the “relative potency in PFA-100 closure time” value is recorded as “most potent compound”.

`O=C(O)c1ccc(OCCc2c(CCNS(=O)(=O)Cc3c(Cl)cccc3Cl)n(C(c3ccccc3)c3ccccc3)c3ccc(Cl)cc23)cc1` [Example 73, 4-{2-[1-Benzhydryl-5-chloro-2-(2-{[(2-dichlorobenzyl)sulfonyl]amino}ethyl)-1H-indol-3-yl]ethoxy}benzoic acid]: in data set [1], inhibition was half-maximal at 300 nM (IC50).

Consider `O=C(O)c1ccc(OCCc2c(CCNS(=O)(=O)Cc3cnc(Cl)c(Cl)c3)n(C(c3ccccc3)c3ccccc3)c3ccc(Cl)cc23)cc1` [Example 76], for which the midpoint of inhibition in data set [1], the IC50, lay at 400 nM.

In data set [1], `O=C(O)CCc1ccc(S(=O)(=O)CCc2c(CCNS(=O)(=O)Cc3ccccc3Cl)n(C(c3ccccc3)c3ccccc3)c3ccc(Cl)cc23)cc1` [Example 129, 3-[4-({2-[1-Benzhydryl-5-chloro-2-(2-{[(2-chloro-benzyl)sulfonyl]amino}ethyl)-1H-indol-3-yl]ethyl}sulfonyl)phenyl]propanoic acid] displayed a 50% inhibitory concentration (IC50) of 130 nM.

In the case of `NCc1ccccc1S(=O)(=O)NCCc1c(CCCc2ccc(C(=O)O)cc2)c2cc(Cl)ccc2n1C(c1ccccc1)c1ccccc1` [Example 156, 4-(3-{2-[2-({[2-(aminomethyl)phenyl]sulfonyl}amino)ethyl]-1-benzhydryl-5-chloro-1H-indol-3-yl}propyl)benzoic acid], in data set [1], the IC50 was found to be 160 nM.

For `O=C(O)c1ccc(OCCc2c(CCNS(=O)(=O)CCN3CC4CC3CO4)n(C(c3ccccc3)c3ccccc3)c3ccc(Cl)cc23)cc1` (stereo not shown) [Example 251, 4-(2-{1-benzhydryl-5-chloro-2-[2-({[2-(2-oxa-5-azabicyclo[2.2.1]hept-5-yl)ethyl]sulfonyl}amino)ethyl]-1H-indol-3-yl}ethoxy)benzoic acid], the IC50 in data set [1] turned out to be 1500 nM.

Consider `O=C(O)c1ccc(OCCc2c(CCNS(=O)(=O)Cc3ccc(Cl)c(Cl)c3)n(C(c3ccccc3)c3ccccc3)c3ccc(Cl)cc23)cc1F` [Example 296, 4-{2-[1-benzhydryl-5-chloro-2-(2-{[(3,4-dichlorobenzyl)sulfonyl]amino}ethyl)-1H-indol-3-yl]ethoxy}-2-fluorobenzoic acid], for which the melting point (as a rule, the temperature, or range, at which the solid turns liquid) was in the range of 117 to 119 °C.

In turn, `O=C(O)c1ccc(OCCc2c(CCNS(=O)(=O)Cc3ccccc3Cl)n(C(c3ccccc3)c3ccccc3)c3ccc(Cl)cc23)cc1F` [Example 297, 4-{2-[1-benzhydryl-5-chloro-2-(2-{[(2-chlorobenzyl)sulfonyl]amino}ethyl)-1H-indol-3-yl]ethoxy}-2-fluorobenzoic acid] showed a melting point of 132 to 135 °C.

Consider `CC(C)(Cc1ccc(S(=O)(=O)CCc2c(CCNS(=O)(=O)Cc3ccc(Cl)c(Cl)c3)n(C(c3ccccc3)c3ccccc3)c3ccc(Cl)cc23)cc1)C(=O)O` [Example 298, 3-[4-({2-[1-benzhydryl-5-chloro-2-(2-{[(3,4-dichlorobenzyl)sulfonyl]amino}ethyl)-1H-indol-3-yl]ethyl}sulfonyl)phenyl]-2,2-dimethylpropanoic acid], for which the melting point is 207 to 208 °C.

As to `CC(=O)Oc1ccccc1C(=O)O` [aspirin, reference compound], the “prolongation of PFA-100 closure time” value in data set [4] was “able to prolong the closure time to varying extents”.

These data come from patent publication US20080009485A1, “Methods for the use of inhibitors of cytosolic phospholipase A2 in the treatment of thrombosis” (Wyeth, priority 2006, published 2008).
